Each structure is given as a SMILES string.

IC50 data for 13 compounds are collected here from patent publication US20130121994A1, “TRIAZOLOPYRIDINE DERIVATIVES” (BAYER INTELLECTUAL PROPERTY GMBH, priority 2009, published 2013).

The experiment addresses T1, human kinase Mps-1 (Homo sapiens, UniProt P33981).
T1 construct: N-terminally GST-tagged human full length recombinant Mps-1 kinase; GST (N); purchased Invitrogen, Karslruhe, Germany PV4071
T1 sequence (P33981 1-857): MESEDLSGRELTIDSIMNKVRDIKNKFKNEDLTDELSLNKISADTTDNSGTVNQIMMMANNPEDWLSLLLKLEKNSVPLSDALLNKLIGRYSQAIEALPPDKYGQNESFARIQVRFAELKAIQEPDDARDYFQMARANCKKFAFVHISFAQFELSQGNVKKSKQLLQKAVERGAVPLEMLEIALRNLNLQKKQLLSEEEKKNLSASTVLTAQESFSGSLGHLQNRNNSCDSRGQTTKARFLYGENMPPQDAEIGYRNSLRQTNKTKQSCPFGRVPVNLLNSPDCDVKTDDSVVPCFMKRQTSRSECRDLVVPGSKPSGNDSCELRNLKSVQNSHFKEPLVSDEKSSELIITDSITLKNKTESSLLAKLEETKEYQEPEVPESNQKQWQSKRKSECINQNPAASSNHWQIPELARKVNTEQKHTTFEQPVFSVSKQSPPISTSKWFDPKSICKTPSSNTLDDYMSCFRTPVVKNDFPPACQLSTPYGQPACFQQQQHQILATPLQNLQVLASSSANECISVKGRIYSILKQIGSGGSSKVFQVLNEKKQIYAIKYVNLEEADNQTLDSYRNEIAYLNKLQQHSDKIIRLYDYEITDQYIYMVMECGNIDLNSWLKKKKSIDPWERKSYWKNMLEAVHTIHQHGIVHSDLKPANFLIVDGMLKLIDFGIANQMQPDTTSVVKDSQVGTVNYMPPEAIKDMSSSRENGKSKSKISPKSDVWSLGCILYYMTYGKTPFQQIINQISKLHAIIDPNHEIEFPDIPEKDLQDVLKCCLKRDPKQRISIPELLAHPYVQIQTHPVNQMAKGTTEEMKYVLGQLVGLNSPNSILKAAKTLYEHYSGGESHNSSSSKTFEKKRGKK
Kind of experiment: Mps-1 kinase assay (HTRF). In kind it is biochemical.
The compound `CCNC(=O)c1ccc(Nc2nc3ccc(-c4cccc(C(=O)NCC(F)(F)F)c4)cn3n2)c(OCC)c1` [Example 11.088, 3-ethoxy-N-ethyl-4-[(6-{3-[(2,2,2-trifluoroethyl)carbamoyl]phenyl}[1,2,4]triazolo [1,5-a]pyridin-2-yl)amino]benzamide] displayed an IC50 of at most 1 nM. `CCOc1cc(C(=O)NC(C)(C)C)ccc1Nc1nc2ccc(-c3cccc(C(=O)NCC(C)(C)C)c3)cn2n1` [Example 11.089, N-tert-butyl-4-[(6-{3-[(2,2-dimethylpropyl)carbamoyl]phenyl}[1,2,4]tria-zolo[1,5-a]pyridin-2-yl)amino]-3-ethoxybenzamide] registered a half-maximal inhibitory concentration (IC50) of 1.01 nM. Next, `CCOc1cc(C(=O)NC(C)(C)C)ccc1Nc1nc2ccc(-c3cccc(C(=O)NCC(F)(F)F)c3)cn2n1` [Example 11.090, N-tert-butyl-3-ethoxy-4-[(6-{3-[(2,2,2-trifluoroethyl)carbamoyl]phenyl}[1,2,4]triazolo [1,5-a]pyridin-2-yl)amino]benzamide]: 1.62 nM; `CC(C)(C)CNC(=O)c1cccc(-c2ccc3nc(Nc4ccc(C(=O)NCCO)cc4OCC(F)(F)F)nn3c2)c1` [Example 11.091, 4-[(6-{3-[(2,2-dimethylpropyl)carbamoyl]phenyl}[1,2,4]tria-zolo[1,5-a]pyridin-2-yl)amino]-N-(2-hydroxyethyl)-3-(2,2,2-trifluoroethoxy)benzamide]: at most 1 nM; `CC(C)(C)CNC(=O)c1cccc(-c2ccc3nc(Nc4ccc(C(=O)NC(C)(C)CO)cc4OCC(F)(F)F)nn3c2)c1` [Example 11.092, 4-[(6-{3-[(2,2-dimethylpropyl)carbamoyl]phenyl}[1,2,4]tria-zolo[1,5-a]pyridin-2-yl)amino]-N-(1-hydroxy-2-methylpropan-2-yl)-3-(2,2,2-trifluoroethoxy)benzamide]: at most 1 nM. Next, `O=C(NCCO)c1ccc(Nc2nc3ccc(-c4cccc(C(=O)NCC(F)(F)F)c4)cn3n2)c(OCC(F)(F)F)c1` [Example 11.093, N-(2-hydroxyethyl)-3-(2,2,2-trifluoroethoxy)-4-[(6-{3-[(2,2,2-trifluoroethyl)carbamoyl]phenyl}[1,2,4]triazolo [1,5-a]pyridin-2-yl)amino]benzamide]: at most 1 nM; `CC(C)(CO)NC(=O)c1ccc(Nc2nc3ccc(-c4cccc(C(=O)NCC(F)(F)F)c4)cn3n2)c(OCC(F)(F)F)c1` [Example 11.094, N-(1-hydroxy-2-methylpropan-2-yl)-3-(2,2,2-trifluoroethoxy)-4-[(6-{3-[(2,2,2-trifluoroethyl)carbamoyl]phenyl}[1,2,4]triazolo [1,5-a]pyridin-2-yl)amino]benzamide]: at most 1 nM; `CC(C)(C)CNC(=O)c1cccc(-c2ccc3nc(Nc4ccc(C(=O)NCC(C)(C)O)cc4OCC(F)(F)F)nn3c2)c1` [Example 11.095, 4-[(6-{3-[(2,2-dimethylpropyl)carbamoyl]phenyl}[1,2,4]tria-zolo[1,5-a]pyridin-2-yl)amino]-N-(2-hydroxy-2-methylpropyl)-3-(2,2,2-trifluoroethoxy)benzamide]: at most 1 nM. Next, `CC(C)(O)CNC(=O)c1ccc(Nc2nc3ccc(-c4cccc(C(=O)NCC(F)(F)F)c4)cn3n2)c(OCC(F)(F)F)c1` [Example 11.096, N-(2-hydroxy-2-methylpropyl)-3-(2,2,2-trifluoroethoxy)-4-[(6-{3-[(2,2,2-trifluoroethyl)carbamoyl]phenyl}[1,2,4]triazolo [1,5-a]pyridin-2-yl)amino]benzamide]: at most 1 nM; `CNS(=O)(=O)c1cccc(-c2ccc3nc(Nc4cccc(F)c4C#N)nn3c2)c1` [Example 11.098, 3-{2-[(2-cyano-3-fluorophenyl)amino][1,2,4]triazolo[1,5-a]pyridin-6-yl}-N-methylbenzenesulfonamide]: 97.6 nM; `CC(C)(C)CC(=O)Nc1ccc(-c2ccc3nc(Nc4ccccc4C#N)nn3c2)cc1` [Example 11.099, N-(4-{2-[(2-cyanophenyl)amino][1,2,4]triazolo[1,5-a]pyridin-6-yl}phenyl)-3,3-dimethylbutanamide]: 18.9 nM. As to `CC(C)(C)CCC(=O)Nc1ccc(-c2ccc3nc(Nc4ccccc4C#N)nn3c2)cc1` [Example 11.100, N-(4-{2-[(2-cyanophenyl)amino][1,2,4]triazolo[1,5-a]pyridin-6-yl}phenyl)-4,4-dimethylpentanamide], the IC50 came to 8.08 nM. `COc1cc(C(=O)NC(C)(C)C)ccc1Nc1nc2ccc(-c3ccc(NC(=O)CC(F)(F)F)cc3)cn2n1` [Example 11.101, N-tert-butyl-3-methoxy-4-[(6-{4-[(3,3,3-trifluoropropanoyl)amino]phenyl}[1,2,4]triazolo [1,5-a]pyridin-2-yl)amino]benzamide]: the IC50 is 2.53 nM.
